Assay results reported in paper PMC10298275, “Antiproliferative Activity and Impact on Human Gut Microbiota of New O-Alkyl Derivatives of Naringenin and Their Oximes” (International Journal of Molecular Sciences, 2023).
Values after ≈ are worked out from the molar mass of the structure shown. Read-outs that look alike come from different tables or passages of the source.

What was measured:
Escherichia coli K12 [1] = assay: MBC assay; assay type: cell-based; conditions: Escherichia coli; E. coli K12; read-out: MBC
Method: (§1) The minimum bactericidal concentration (MBC) was tested for all naringenin derivatives. First, 10 µL of medium was taken from the plate, on which the MIC was determined for the MIC value, the value below and the two values above. This volume was transferred to TSA or MC agar. After 18–24 h (depending on strain) incubation at 37 °C, colonies were counted. The concentration of test compounds at which no bacterial growth was observed was defined as the MBC value. Each experiment was repeated 3 times.

[2] = test system: Staphylococcus aureus ATCC 25923; assay: MBC assay; assay type: cell-based; conditions: Staphylococcus aureus, ATCC25923; S. aureus ATCC 25923; read-out: MBC
Method: as §1

[3] = test system: Enterococcus faecalis ATCC 29212; assay: MBC assay; assay type: cell-based; conditions: Enterococcus faecalis, ATCC29212; E. faecalis ATCC 29212; read-out: MBC
Method: as §1

SRB assay, cytotoxicity [4] = assay type: cell-based, human; conditions: human, HT-29 cells; HT-29, SRB, 24 h exposure, three independent repeats; read-out: Cytotoxicity (IC50 ± SD)
Method: (§2) The HT-29 cells (ATCC, Manassas, VA, USA) were cultured within α-MEM (IIET PAS, Wrocław, Poland) supplemented with 10% fetal bovine serum (Sigma, St. Louis, MO, USA), antimycotic (100 μg/mL penicillin, 100 μg/mL streptomycin and 0.25 μg/mL amphotericin) (Sigma) and 2 mM glutamine (Sigma). The 3T3-L1 cells (ATCC, Manassas, VA, USA) were cultivated using DMEM high-glucose medium (IIET PAS, Wrocław, Poland) supplemented as above. Both cell lines were cultured at 37 °C in an atmosphere of 5% CO2.
(§3) The sulforhodamine B (SRB) assay was performed according to a previously published protocol. Briefly, 1 × 10^4 HT-29 or 5 × 10^3 3T3-L1 cells were seeded into 96-well plates. After attaching to the plate surface, the cells were incubated with 100, 75, 50, 25, 10 or 1 µg/mL of the investigated compounds for 24 h. After this time, proteins were precipitated with trichloroacetic acid and stained with SRB. The absorbance was measured at 560 nm using a GloMax Discover Microplate Reader (Promega, Madison, WI, USA).

SRB assay, cytotoxicity [5] = assay type: cell-based, mouse; conditions: mouse, 3T3-L1 cells; 3T3-L1, SRB, 24 h exposure, three independent repeats; read-out: Cytotoxicity (IC50 ± SD)
Method: as §2, §3

HT-29 cells [6] = assay: MTT assay, cell viability; assay type: cell-based, human; conditions: 24 h; for effect on colon adenocarcinoma cells (viability, MTT): HT-29, highest concentration 100 µg/mL; for reduction in cell viability: HT-29, MTT, 10 µg/mL dose
Method: as §2
First, 1 × 10^4 HT-29 cells or 5 × 10^3 3T3-L1 cells were seeded into a 96-well plate and incubated for one night. Then, cells were treated with different concentrations of the investigated compounds within 24 h. Afterwards, the medium was replaced with a fresh medium containing 0.5 mg/mL of 3-(4,5-dimethylthiazol-2-yl)-2,5-diphenyl-2H-tetrazolium bromide (MTT, Sigma) and incubated for 2 h at 37 °C. After removing the medium, the formazan salts were dissolved in dimethyl sulfoxide (DMSO, Sigma), and the absorbance of the solution was measured at 560 nm using a plate reader.

Escherichia coli K12 [7] = assay: MIC, microdilution method; assay type: cell-based; conditions: Escherichia coli; E. coli K12; MHB, 18 h, 37 °C; tested 512 to 1 µg/mL; read-out: MIC
Method: (§4) Non-pathogenic reference strains representing the intestinal microbiome were used for the studies: Escherichia coli K12, Staphylococcus aureus ATCC 25923 and Enterococcus faecalis ATCC 29212. All strains were obtained from the collection of the Department of Microbiology at the Medical University of Wrocław.
(§5) The strains were received from the museum (−80 °C) and grown in tryptic soy broth (TSB, OXOID, Basingstoke, UK) under continuous shaking conditions (MaxQTM6000 incubator shaker, Thermo Scientific, Waltham, MA, USA) at 125 rpm at 37 °C. Then, they were moved to the growth media, namely tryptic soy agar (TSA, OXOID, Basingstoke, UK) and MacConkey agar (MC, Millipore, Darmstadt, Germany) for S. aureus or E. faecalis and E. coli, respectively.
(§6) A fresh 18–24 h culture was used for each study. For this purpose, a culture with a density of 1.5 × 10^8 CFU/mL in Mueller–Hinton broth (MHB, OXOID, Basingstoke, UK) was prepared and used for further microdilution studies.
(§7) The antimicrobial activity of the O-alkyl derivatives of naringenin and their oximes was tested in vitro using the microdilution method, showing the minimum inhibitory concentration (MIC), in accordance with the recommendations of the European Antimicrobial Susceptibility Testing Committee EUCAST [44]. MICs were determined in 96-well microdilution plates. The tests were carried out in MHB medium. The O-alkyl derivatives of naringenin and their oximes were tested in the concentration range of 512 to 1 µg/mL in a geometric process in MHB medium. The final concentration of the test strains in each test well was 5 × 10^5 CFU/mL. MICs were read after 18 h (for E. coli and S. aureus) and 24 h (for E. faecalis) incubation at 37 °C.
(§8) A strain growth control (tested strain in medium), background control for tested compounds (naringenin derivatives in MHB), medium control (only pure MHB) and compound solvent control (DMSO at test compound concentration, strain and MHB) were set for each experiment. Each test was set up with three independent experiments, each as three separate replicates.
(§9) The […], OD600, was measured in a plate reader (ASYS UVM340, BIOCHROM Ltd., Cambridge, UK). The background control of the tested compounds and the clean medium were included in the absorbance results.

[8] = test system: Staphylococcus aureus ATCC 25923; assay: MIC, microdilution method; assay type: cell-based; conditions: Staphylococcus aureus, ATCC25923; S. aureus ATCC 25923; MHB, 18 h, 37 °C; tested 512 to 1 µg/mL; read-out: MIC
Method: as §4, §5, §6, §7, §8, §9

[9] = test system: Enterococcus faecalis ATCC 29212; assay: MIC, microdilution method; assay type: cell-based; conditions: E. faecalis ATCC 29212, MHB, 24 h, 37 °C, tested 512 to 1 µg/mL
Method: as §4, §5, §6, §7, §8, §9

HT-29 cells [10] = assay: SRB assay, cytotoxicity; assay type: cell-based, human; conditions: HT-29, SRB, up to 100 µg/mL
Method: as §2, §3

[11] = Enterococcus faecalis, ATCC29212, read-out: MIC

Row | Compound | MBC (Escherichia coli K12 [1]) [µg/mL] | MBC [2] [µg/mL] | MBC [3] [µg/mL] | IC50 at 24 h (SRB assay, cytotoxicity [4]) [µg/mL] | IC50 at 24 h (SRB assay, cytotoxicity [5]) [µg/mL] | effect on colon adenocarcinoma cells (viability, MTT) (HT-29 cells [6]) | MIC (Escherichia coli K12 [7]) [µg/mL] | MIC [8] [µg/mL] | MIC [9, 11] [µg/mL] | melting point [°C] | reduction in cell viability (HT-29 cells [6]) | effect on the proliferation of the HT-29 cell line (HT-29 cells [10]) | MIC [9]
1 | CCCCCCOc1cc(O)c2c(c1)O[C@H](c1ccc(O)cc1)CC2=O [A1, 7-O-hexylnaringenin] | > 512 | > 512 | > 512 | 14.3 ± 0.84 (≈ 40.1 µM) | 10.8 ± 1.1 (≈ 30.4 µM) | completely inhibited | > 512 | 16 (≈ 44.9 µM) | 16 (≈ 44.9 µM) | – | – | – | –
2 | CCCCCCCOc1cc(O)c2c(c1)O[C@H](c1ccc(O)cc1)CC2=O [A3, 7-O-Heptylnaringenin] | > 512 | > 512 | > 512 | 14.2 ± 0.56 (≈ 38.3 µM) | 7.61 ± 1.2 (≈ 20.5 µM) | completely inhibited | > 512 | 16 (≈ 43.2 µM) | 32 (≈ 86.4 µM) | 114 to 115 | – | – | –
3 | CCCCCCCCOc1cc(O)c2c(c1)O[C@H](c1ccc(O)cc1)CC2=O [A5, 7-O-Octylnaringenin] | > 512 | > 512 | > 512 | 14.63 ± 0.13 (≈ 38.1 µM) | 8.86 ± 0.67 (≈ 23 µM) | completely inhibited | > 512 | 8 (≈ 20.8 µM) | 16 (≈ 41.6 µM) | 111 to 113 | – | – | –
4 | CCCCCCCCCOc1cc(O)c2c(c1)O[C@H](c1ccc(O)cc1)CC2=O [A7, 7-O-Nonylnaringenin] | > 512 | > 512 | > 512 | 15 ± 0.41 (≈ 37.7 µM) | 8.65 ± 0.71 (≈ 21.7 µM) | completely inhibited | > 512 | 16 (≈ 40.2 µM) | 16 (≈ 40.2 µM) | 115 to 116 | – | – | –
5 | CCCCCCOc1cc(O)c2c(c1)O[C@H](c1ccc(O)cc1)CC2=NO [B1, 7-O-hexylnaringenin oxime] | > 512 | 32 (≈ 86.2 µM) | 256 (≈ 689 µM) | 11.3 ± 1.63 (≈ 30.5 µM) | 8.3 ± 0.72 (≈ 22.3 µM) | – | > 512 | 8 (≈ 21.5 µM) | 16 (≈ 43.1 µM) | – | more than 50% | – | –
6 | CCCCCCCOc1cc(O)c2c(c1)O[C@H](c1ccc(O)cc1)CC2=NO [B3, 7-O-Heptylnaringenin oxime] | > 512 | 128 (≈ 332 µM) | 512 (≈ 1330 µM) | 11.3 ± 0.81 (≈ 29.3 µM) | 7.77 ± 1.11 (≈ 20.2 µM) | – | > 512 | 64 (≈ 166 µM) | 16 (≈ 41.5 µM) | 186 to 187 | more than 50% | – | –
7 | CCCCCCCOc1ccc([C@@H]2CC(=NO)c3c(O)cc(OCCCCCCC)cc3O2)cc1 [B4, 7,4′-Di-O-heptylnaringenin oxime] | > 512 | > 512 | > 512 | > 100 | > 100 | – | > 512 | > 512 | > 512 | 82 to 83 | – | no effect on the proliferation | >512 (>512) µg/mL
8 | CCCCCCCCOc1cc(O)c2c(c1)O[C@H](c1ccc(O)cc1)CC2=NO [B5, 7-O-Octylnaringenin oxime] | > 512 | > 512 | 256 (≈ 641 µM) | 9.96 ± 1.13 (≈ 24.9 µM) | 7.1 ± 1.57 (≈ 17.8 µM) | – | > 512 | 256 (≈ 641 µM) | 16 (≈ 40.1 µM) | 183 to 185 | more than 50% | – | –
9 | CCCCCCCCOc1ccc([C@@H]2CC(=NO)c3c(O)cc(OCCCCCCCC)cc3O2)cc1 [B6, 7,4′-Di-O-octylnaringenin oxime] | > 512 | > 512 | > 512 | > 100 | > 100 | – | > 512 | > 512 | > 512 | 85 to 86 | – | no effect on the proliferation | >512 (>512) µg/mL
10 | CCCCCCCCCOc1cc(O)c2c(c1)O[C@H](c1ccc(O)cc1)CC2=NO [B7, 7-O-Nonylnaringenin oxime] | > 512 | > 512 | > 512 | 11.2 ± 1.27 (≈ 27.2 µM) | 6.08 ± 0.64 (≈ 14.7 µM) | – | > 512 | 128 (≈ 310 µM) | 8 (≈ 19.3 µM) | 176 to 178 | more than 50% | – | –
